According to PubChem BioAssay AID1963985 (Molecular Pharmacology Branch, DTP, NCI, 2024):

Tested on: 252836-082-R-J2-PDC tumor spheroids, viability
Experiment: Anticancer human tumor 252836-082-R-J2-PDC patient-derived head and neck squamous cell carcinoma cell line growth inhibition [PI3K]
Details: spheroids with HUVEC and MSC; for IC50: curve of first compound; for viability, T/C: stronger effect = lower value
Procedure, shortened: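 Three cell types, namely tumor cells, endothelial cells and mesenchymal stem cells, formed each spheroid. Combinations with four PI3K inhibitors were screened at clinically achievable concentrations decreasing by half-log, and spheroid viability was recorded.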
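Further: spheroids exposed to agents for seven days before readout.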
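Wherever viability, T/C is given: percent of vehicle DMSO control viability so 100% = untreated growth.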

Q: For `CNC(=O)c1ccc(N2C(=S)N(c3ccc(C#N)c(C(F)(F)F)c3)C(=O)C2(C)C)cc1F` + Cc1nc(NC(=O)N2CCCC2C(N)=O)sc1-c1ccnc(C(C)(C)C(F)(F)F)c1, which IC50 (second compound 0.0316 µM) is on record?
A: > 10 µM

Q: And the IC50 (second compound 0.1 µM)?
A: > 10 µM

Q: What about the IC50 (second compound 0.316 µM) of the same compound?
A: > 10 µM

Q: And the IC50 (second compound 1 µM)?
A: > 10 µM

Q: And the IC50 (second compound 3.16 µM)?
A: > 10 µM

Q: And the IC50 (second compound 10 µM)?
A: < 0.0316 µM

Q: And the viability, T/C (second compound 0.0316 µM, first compound 0.0316 µM)?
A: 99.5%

Q: And the viability, T/C (second compound 0.0316 µM, first compound 0.1 µM)?
A: 93.2%

Q: And the viability, T/C (second compound 0.0316 µM, first compound 0.316 µM)?
A: 103%

Q: And the viability, T/C (second compound 0.0316 µM, first compound 1 µM)?
A: 91%

Q: And the viability, T/C (second compound 0.0316 µM, first compound 3.16 µM)?
A: 94.7%

Q: And the viability, T/C (second compound 0.0316 µM, first compound 10 µM)?
A: 84.8%

Q: And the viability, T/C (second compound 0.1 µM, first compound 0.0316 µM)?
A: 87.3%

Q: And the viability, T/C (second compound 0.1 µM, first compound 0.1 µM)?
A: 75.7%

Q: And the viability, T/C (second compound 0.1 µM, first compound 0.316 µM)?
A: 80.8%

Q: And the viability, T/C (second compound 0.1 µM, first compound 1 µM)?
A: 86.5%

Q: And the viability, T/C (second compound 0.1 µM, first compound 3.16 µM)?
A: 99.1%

Q: What about the viability, T/C (second compound 0.1 µM, first compound 10 µM) of the same compound?
A: 82.1%

Q: And the viability, T/C (second compound 0.316 µM, first compound 0.0316 µM)?
A: 68%

Q: What about the viability, T/C (second compound 0.316 µM, first compound 0.1 µM) of the same compound?
A: 72%

Q: And the viability, T/C (second compound 0.316 µM, first compound 0.316 µM)?
A: 82%

Q: What about the viability, T/C (second compound 0.316 µM, first compound 1 µM) of the same compound?
A: 83.5%

Q: And the viability, T/C (second compound 0.316 µM, first compound 3.16 µM)?
A: 74.1%

Q: And the viability, T/C (second compound 0.316 µM, first compound 10 µM)?
A: 66%

Q: What about the viability, T/C (second compound 1 µM, first compound 0.0316 µM) of the same compound?
A: 63%

Q: What about the viability, T/C (second compound 1 µM, first compound 0.1 µM) of the same compound?
A: 61.8%

Q: What about the viability, T/C (second compound 1 µM, first compound 0.316 µM) of the same compound?
A: 51.7%

Q: And the viability, T/C (second compound 1 µM, first compound 1 µM)?
A: 68.3%

Q: And the viability, T/C (second compound 1 µM, first compound 3.16 µM)?
A: 60.8%

Q: What about the viability, T/C (second compound 1 µM, first compound 10 µM) of the same compound?
A: 54.5%

Q: What about the viability, T/C (second compound 3.16 µM, first compound 0.0316 µM) of the same compound?
A: 45.1%

Q: What about the viability, T/C (second compound 3.16 µM, first compound 0.1 µM) of the same compound?
A: 55.9%

Q: What about the viability, T/C (second compound 3.16 µM, first compound 0.316 µM) of the same compound?
A: 49.5%

Q: What about the viability, T/C (second compound 3.16 µM, first compound 1 µM) of the same compound?
A: 49.2%

Q: What about the viability, T/C (second compound 3.16 µM, first compound 3.16 µM) of the same compound?
A: 54.3%

Q: What about the viability, T/C (second compound 3.16 µM, first compound 10 µM) of the same compound?
A: 46.1%

Q: And the viability, T/C (second compound 10 µM, first compound 0.0316 µM)?
A: 27.4%

Q: And the viability, T/C (second compound 10 µM, first compound 0.1 µM)?
A: 36.2%

Q: And the viability, T/C (second compound 10 µM, first compound 0.316 µM)?
A: 33.9%

Q: What about the viability, T/C (second compound 10 µM, first compound 1 µM) of the same compound?
A: 35.4%

Q: What about the viability, T/C (second compound 10 µM, first compound 3.16 µM) of the same compound?
A: 40.3%

Q: What about the viability, T/C (second compound 10 µM, first compound 10 µM) of the same compound?
A: 35.8%
